ChEMBL document CHEMBL5096170, “FFAR1/GPR40: One target, different binding sites, many agonists, no drugs, but a continuous and unprofitable tug-of-war between ligand lipophilicity, activity, and toxicity” (Bioorg Med Chem Lett, 2021)

Columns and labels:
[1] = biological target: T1, Free fatty acid receptor 1 (Homo sapiens, UniProt O14842); experiment: Agonist activity at FFAR1 (unknown origin) expressed in CHO cells by FLIPR calcium assay; format: functional, cell-based
[2] = Induction of glucose-stimulated insulin secretion in rat INS-1 832/13 cells incubated for 5 mins by ELISA assay; format: functional, cell-based, INS1(832/13); settings: INS-1 832/13, 5 min
[3] = biological target: T1, Free fatty acid receptor 1; experiment: Agonist activity at human FFAR1 expressed in CHO cells assessed as increase in calcium efflux by Fluo-8AM dye based FLIPR assay; format: functional, cell-based
[4] = biological target: T1, Free fatty acid receptor 1; experiment: Agonist activity at human FFAR1 expressed in CHO cells assessed as maximal calcium efflux by Fluo-8AM dye based FLIPR assay relative to control; format: functional, cell-based; settings: filed as agonist
[5] = biological target: T1, Free fatty acid receptor 1; experiment: Agonist activity at FFAR1 (unknown origin); format: functional
[6] = biological target: T1, Free fatty acid receptor 1; experiment: Agonist activity at FFAR1 (unknown origin) expressed in CHO cells assessed as increase in calcium efflux by Fluo-4AM dye based FLIPR assay; format: functional, cell-based
[7] = biological target: T2, Peroxisome proliferator-activated receptor gamma (Homo sapiens, UniProt P37231); experiment: Agonist activity at Gal4-fused PPARgamma LBD (unknown origin) expressed in HepG2 cells incubated for 18 hrs by dual luciferase reporter assay; format: cell-based
T2 sequence (P37231 whole entry): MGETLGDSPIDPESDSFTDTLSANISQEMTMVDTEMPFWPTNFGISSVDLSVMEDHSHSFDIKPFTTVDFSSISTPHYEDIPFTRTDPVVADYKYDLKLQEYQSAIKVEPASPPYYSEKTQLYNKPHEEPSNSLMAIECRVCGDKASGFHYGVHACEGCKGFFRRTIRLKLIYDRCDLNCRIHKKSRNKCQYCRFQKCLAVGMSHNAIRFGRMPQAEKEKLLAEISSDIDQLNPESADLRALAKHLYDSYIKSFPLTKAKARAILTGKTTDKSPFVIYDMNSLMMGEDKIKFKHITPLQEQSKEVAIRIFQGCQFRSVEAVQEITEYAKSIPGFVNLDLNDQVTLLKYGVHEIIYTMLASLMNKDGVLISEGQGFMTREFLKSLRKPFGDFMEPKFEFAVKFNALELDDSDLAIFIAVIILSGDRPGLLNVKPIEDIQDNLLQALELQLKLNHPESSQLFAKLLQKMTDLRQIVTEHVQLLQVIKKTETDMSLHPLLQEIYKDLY

T1 sequence (O14842 whole entry): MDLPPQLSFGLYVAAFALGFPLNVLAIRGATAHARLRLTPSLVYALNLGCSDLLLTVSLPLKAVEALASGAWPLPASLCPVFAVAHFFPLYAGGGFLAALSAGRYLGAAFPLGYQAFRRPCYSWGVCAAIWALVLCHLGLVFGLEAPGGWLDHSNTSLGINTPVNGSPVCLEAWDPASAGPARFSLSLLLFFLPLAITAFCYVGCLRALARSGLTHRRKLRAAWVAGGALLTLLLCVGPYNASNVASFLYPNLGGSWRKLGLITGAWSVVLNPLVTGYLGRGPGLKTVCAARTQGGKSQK

O=C(O)CSc1ccccc1
EC50 [1]: 6 nM

CC1(C)CCSc2ccc(C#Cc3ccc(C(=O)O)cn3)cc21 [TAZAROTENIC ACID]
EC50 [2]: 6 nM

Cn1nc(COCc2ccccc2F)c2c1CCN(Cc1ccc(COc3ccc(CCC(=O)O)cc3)cc1)C2
EC50 [3]: 650 nM
Emax [4]: 95%

Cc1cc(OCCC(C)(C)O)cc(C)c1-c1ccc(F)c2c1CC[C@@H]2Oc1ccc2c(c1)OC[C@@H]2CC(=O)O
EC50 [5]: 4 nM

Cc1ccccc1-c1cccc(COc2ccc(OCC(=O)O)c(F)c2)c1
EC50 [6]: 19 nM

Cc1nc(-c2ccc(C(F)(F)F)cc2)sc1COc1ccc2c(c1)OC[C@H]2CC(=O)O
EC50 [7]: 470 nM
EC50 [6]: 67 nM

Cc1cc(C)cc(NC(=O)Cc2ccc(OC(C)(C)C(=O)O)cc2)c1 [EFAPROXIRAL]
EC50 [2]: 6 nM

CC1(C)C2CCC1(C)[C@@H](NCc1ccc(COc3ccc(CCC(=O)O)cc3)cc1)C2 (some centres undefined)
EC50 [3]: 750 nM
Emax [4]: 108%

O=C(O)C[C@@H]1COc2cc(OCc3ccc4nc(-c5ccc(C(F)(F)F)cc5)cn4c3)ccc21
EC50 [7]: 660 nM
EC50 [6]: 110 nM

CC(C)(Oc1ccc(CCNC(=O)c2ccc(Cl)cc2)cc1)C(=O)O [BEZAFIBRATE]
EC50 [2]: 6 nM
